According to patent US11122807B2, “Herbicidal mixtures comprising L-glufosinate or its salt and a second herbicide” (BASF SE, priority 2017, dated 2021):

System: LOLMU (Lolium multiflorum)
Assay: Greenhouse post-emergence herbicidal test, scale 0 to 100, synergism by Colby's equation
Assay type: in vivo
Text: Synergism can be described as an interaction where the combined effect of two or more compounds is greater than the sum of the individual effects of each of the compounds. The presence of a synergistic effect in terms of percent control, between two mixing partners (X and Y) can be calculated using the Colby equation (Colby, S. R., 1967, Calculating Synergistic and Antagonistic Responses in Herbicide Combinations, Weeds, 15, 21-22):
When the observed combined control effect is greater than the expected (calculated) combined control effect (E), then the combined effect is synergistic.
However, the weed control afforded by the compounds, mixtures or compositions is not limited to these species. The analysis of synergism or antagonism between the mixtures or compositions was determined using Colby's equation.
The culture containers used were plastic flowerpots containing loamy sand with approximately 3.0% of humus as the substrate. The seeds of the test plants were sown separately for each species and/or resistant biotype. For the pre-emergence treatment, the active ingredients, which had been suspended or emulsified in water, were applied directly after sowing by means of finely distributing nozzles. The containers were irrigated gently to promote germination and growth and subsequently covered with transparent plastic hoods until the plants had rooted. This cover caused uniform germination of the test plants, unless this had been impaired by the active ingredients. For the post-emergence treatment, the test plants were first grown to a height of 3 to 15 cm, depending on the plant habit, and only then treated with the active ingredients which had been suspended or emulsified in water. For this purpose, the test plants were either sown directly and grown in the same containers, or they were first grown separately as seedlings and transplanted into the test containers a few days prior to treatment. Depending on the species, the plants were kept at 10-25° C. or 20-35° C., respectively. The test period extended to 20 days after treatment. During this time, the plants were tended, and their response to the individual treatments was evaluated. The evaluation was carried out by using a scale from 0 to 100. 100 means no emergence of the plants or complete destruction of at least the above-ground parts, and 0 means no damage, or normal course of growth. Data shown are the mean of two replications.
L-Glufosinate: 5% EC formulation
Triaziflam: 5% EC formulation
Methiozolin: 250 g/l SC formulation

Compound: CP(=O)(O)CC[C@H](N)C(=O)O [L-Glufosinate, (2S)-2-amino-4-[hydroxy(methyl)phosphinoyl]butyric acid]
- Herbicidal activity against LOLMU, Found (L-Glufosinate alone 75 g ai/ha, scale 0-100 (100 = complete destruction), Example 1): 0
- Herbicidal activity against LOLMU, Found (L-Glufosinate alone 75 g ai/ha, scale 0-100, Example 2): 0

Compound: Cc1ccsc1C1=NOC(C)(COCc2c(F)cccc2F)C1 (stereo not drawn) [methiozoline, methiozolin]
- Herbicidal activity against LOLMU, Found (methiozoline alone 125 g ai/ha, scale 0-100, Example 2): 0
- Herbicidal activity against LOLMU, Found (methiozoline alone 250 g ai/ha, scale 0-100, Example 2): 25

Compound: Cc1cc(C)cc(OCC(C)Nc2nc(N)nc(C(C)(C)F)n2)c1 (stereo not drawn) [triaziflam]
- Herbicidal activity against LOLMU, Found (triaziflam alone 125 g ai/ha, scale 0-100, Example 1): 10
- Herbicidal activity against LOLMU, Found (triaziflam alone 250 g ai/ha, scale 0-100, Example 1): 55
